The values below come from PMC11358882, “Neuroprotective Effects of Phenolic Constituents from Drynariae Rhizoma” (Pharmaceuticals, 2024).

One test concerns the target T1, AChE from electric eel (Electrophorus electricus, UniProt O42275).
T1 construct: purchased Sigma-Aldrich Co., St. Louis, USA
The test can be described thus: biochemical. In kind it is biochemical. How it is done: (§1) The AChE- and BChE-inhibitory, MTT, and Th T assays were analyzed using a UV–visible (VIS) spectrophotometer (Biotek, EPOCH2, Winooski, VT, USA), ensuring accurate measurements. For BACE1- and MAO-B-inhibitory assays, a multimode microplate reader (SpectraMax M3, Molecular Devices, San Jose, CA, USA) was employed, providing precise readings. Analytical-grade DMSO from DEAJUNG Chemical, Korea, served as a solvent in the bioassays. Reagents and solvents, including AChE from electric eel, acetylthiocholine iodide (ATCh), BChE from equine serum, S-butyrylthiocholine iodide (BTCh), 5,5′-dithiobis [2-nitrobenzoic acid] […] Additionally, the BACE1-inhibitory assay utilized the BACE1 (β-secretase) FRET assay kit from PanVera® Corporation, Madison, USA, while the MAO-B-inhibitory assay employed the MAO-B Inhibitor Screening Kit (Fluorometric) ab284511 from Abcam plc Co., Cambridge, UK.
(§2) The inhibitory activities against cholinesterases (AChE and BChE) were evaluated using a spectrophotometric method previously developed by Ellman et al.. Specifically, ATCh and BTCh were used as substrates to measure the inhibitory effects on AChE and BChE, respectively. The assay mixture consisted of 140 μL of 0.1 M sodium phosphate buffer at pH 7.8, 20 μL of a 0.38 U/mL solution of either AChE or BChE, and 20 μL of the test sample solution. This mixture was thoroughly mixed and then incubated at room temperature for 15 min. […] Reactions were initiated by adding 10 μL of 0.5 mM DTNB and 10 μL of either 0.6 mM ATCh or BTCh. ChE-inhibitory activity was monitored by measuring the formation of the yellow 5-thio-2-nitrobenzoate anion at 412 nm over 15 min (Epoch, BioTek, Winooski, VT, USA), resulting from the reaction of DTNB and thiocholine released from ATCh or BTCh. All reactions were conducted in 96-well microplates and performed in triplicate. The percentage of inhibition (%) was determined using the following formula: inhibition (%)={(Ac−As)/Ac}×100 , where Ac represents the enzyme activity in the absence of the test sample, and As represents the enzyme activity in the presence of the test sample. The ChE-inhibitory activities of each sample were quantified in terms of IC50, which was calculated from the log–dose inhibition curve.

For another test, the target named is T2, BChE from equine serum (Equus caballus, UniProt P81908).
T2 construct: BChE from equine serum; purchased Sigma-Aldrich Co., St. Louis, USA; host or cells: equine serum
The test can be described thus: biochemical. Type of test: biochemical. How it is done:
as §1, §2

A further test deals with T3, BACE1 (Homo sapiens, UniProt P56817).
T3 construct: purchased PanVera Corporation, Madison, WI, USA P2985
The test can be described thus: BACE1 (β-secretase) FRET inhibitory assay. In kind it is biochemical. How it is done:
The BACE1 inhibition assay was conducted using the BACE1 (β-secretase) FRET Assay Kit, Red Protocol, part number P2985 (PanVera® Corporation, Madison, WI, USA), following the manufacturer’s recommended protocol with minor modifications. The assay mixture consisted of 10 μL of BACE1 (1.0 U/mL), 10 μL of substrate (750 nM Rh-[…]-Quencher in 50 mM ammonium bicarbonate), the assay buffer (50 mM sodium acetate, pH 4.5), and 10 μL of the test samples. […] The reaction mixture was incubated for 60 min at room temperature in darkness. Before measurement, a stop solution (2.5 M sodium acetate) was added to halt the reaction. BACE1 enzyme activity was assessed by monitoring the proteolysis of two fluorophores (Rh-[…]-Quencher), forming the fluorescent donor (Rh-EVNL) with increased fluorescence wavelengths at 530–545 nm (excitation) and 570–590 nm (emission), respectively. All reactions were recorded in black 96-well microplates and performed in triplicate. The percentage of inhibition (%) was calculated using the following formula: inhibition (%)=[1−(S60−S0)/(C60−C0)]×100 , where C60 represents the fluorescence of the control after incubation, C0 represents the initial fluorescence of the control, S60 represents the fluorescence of the tested sample after incubation, and S0 represents the initial fluorescence of the tested sample. The BACE1-inhibitory activities of each sample were quantified in terms of IC50, which was determined from the log–dose inhibition curve.

The target in a further test is T4, MAO-B (Homo sapiens, UniProt P27338).
T4 construct: purchased Abcam plc, Cambridge, UK ab284511
T4 sequence (P27338 1-520): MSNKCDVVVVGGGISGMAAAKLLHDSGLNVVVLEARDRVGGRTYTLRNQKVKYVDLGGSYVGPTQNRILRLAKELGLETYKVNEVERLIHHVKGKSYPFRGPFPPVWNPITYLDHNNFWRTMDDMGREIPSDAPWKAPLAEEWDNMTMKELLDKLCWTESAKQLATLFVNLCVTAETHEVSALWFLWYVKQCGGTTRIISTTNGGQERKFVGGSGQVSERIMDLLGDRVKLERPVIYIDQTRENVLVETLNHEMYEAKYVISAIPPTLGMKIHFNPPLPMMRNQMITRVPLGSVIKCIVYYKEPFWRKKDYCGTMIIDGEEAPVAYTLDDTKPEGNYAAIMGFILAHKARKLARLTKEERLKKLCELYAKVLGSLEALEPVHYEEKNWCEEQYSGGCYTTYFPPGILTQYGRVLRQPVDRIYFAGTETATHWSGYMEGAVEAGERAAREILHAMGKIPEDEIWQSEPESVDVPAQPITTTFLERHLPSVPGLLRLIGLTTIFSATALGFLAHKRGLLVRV
The test can be described thus: MAO-B inhibitor screening kit (fluorometric) assay. Type of test: biochemical. The conditions noted are these: isolated compounds; mean ± SD, n = 3; ND = no detection using test concentration. The method, then: The MAO-B-inhibition assay was conducted using the MAO-B Inhibitor Screening Kit (Fluorometric) ab284511 (Abcam plc, Cambridge, UK), following the manufacturer’s recommended protocol with minor modifications. The enzyme solution (50 µL) and the test sample (10 µL) were adjusted as per the manual instructions. […] After mixing, samples and enzymes were incubated at 25 °C for 10 min. Subsequently, 40 μL of MAO-B substrate (comprising MAO-B assay buffer, MAO substrate, developer, and OxiRed probe) was added, followed by further incubation at 25 °C for 5 min. Fluorescence was measured using enzyme-linked immunosorbent assay within 40 min with dynamic fluorescence (Ex/Em = 535/587 nm). All reactions were recorded in black 96-well microplates and performed in triplicate. The slope for all samples, including the enzyme control (EC), was calculated by dividing the net ΔRFU (RFU2–RFU1) values by the time Δt (T2 − T1). The % relative inhibition was computed as follows: % relative inhibition=(slope of EC−slope of S)/slope of EC×100 . The MAO-B-inhibitory activities of each sample were quantified in terms of IC50, as determined from the log–dose inhibition curve.

A further test concerns sAPPβ. The test can be described thus: Western blot of sAPPβ levels in APP-CHO cells. The conditions noted are these: 24 h; for reduction of sAPPβ levels compared to DMSO-treated controls: 1.0 μM. Type of test: cell-based, Chinese hamster. How it is done:
(§3) APP-CHO cells were seeded in six-well plates at a density of 6 × 10^5 cells/1000 μL of medium per well and incubated at 37 °C overnight for cell attachment. Then, the medium was replaced with FBS-free RPMI 1640 for 1 h, followed by treatment with test samples at 37 °C. After 24 h, the cells were washed with PBS and lysed in Laemmli sample buffer. The collected cell lysates were boiled at 100 °C for 10 min. For Western blot analysis, 20 μg of proteins were separated by 7.5% SDS-PAGE and transferred to a PVDF membrane using Trans-Blot® Turbo TM (Bio-Rad, Hercules, CA, USA). The membrane was blocked with 5% skim milk in PBS for 1 h and incubated with primary antibodies overnight at 4 °C. The primary antibodies used were sAPPβ antibody, BACE1 antibody, and α-tubulin antibody diluted at 1:1000, 1:1000, and 1:25,000, respectively. After washing with PBS-T (0.1% Tween 20 in PBS) three times for 10 min each, secondary antibodies, diluted to 1:2500, were incubated for 1 h. Protein detection was performed using ECL solution reagent and protein visualization (ChemiDoc^TM XRS+., Bio-Rad, Hercules, CA, USA). The signal intensity of the bands was quantified and normalized to the signal intensity of the α-tubulin band. Results were expressed as a percentage of DMSO-treated control.

The next test has as its system β-secretase. The test can be described thus: Western blot of β-secretase levels in APP-CHO cells. Type of test: cell-based, Chinese hamster. The conditions noted are these: 24 h; for reduction of β-secretase levels compared to DMSO-treated controls: 1.0 μM. The method, then:
as §3
For orientation: Immunoblotting shows a protein as a band on a membrane.

The subject of test [1] is cultured cortical neurons. Further details: method as in PMID 26299900. The conditions noted are these: cited from earlier work.
The mark [2] stands for this setting: isolated compounds, mean ± SD, n = 3, ND = no detection using test concentration, read-out: IC50 AChE.
Where [3] appears, read: isolated compounds, mean ± SD, n = 3, ND = no detection using test concentration, read-out: IC50 BChE.
[4] abbreviates: isolated compounds, mean ± SD, n = 3, read-out: IC50 BACE1.
Where [5] appears, read: isolated compounds, mean ± SD, n = 3, ND = no detection using test concentration.

By IC50 is commonly meant the concentration at which inhibition is half-maximal.

Where “and” joins values, the source holds several entries; their conditions need not be identical. Identical values can stand only once. Like-named read-outs stand apart in the source and are kept apart here.

T3 sequence (P56817 46-501): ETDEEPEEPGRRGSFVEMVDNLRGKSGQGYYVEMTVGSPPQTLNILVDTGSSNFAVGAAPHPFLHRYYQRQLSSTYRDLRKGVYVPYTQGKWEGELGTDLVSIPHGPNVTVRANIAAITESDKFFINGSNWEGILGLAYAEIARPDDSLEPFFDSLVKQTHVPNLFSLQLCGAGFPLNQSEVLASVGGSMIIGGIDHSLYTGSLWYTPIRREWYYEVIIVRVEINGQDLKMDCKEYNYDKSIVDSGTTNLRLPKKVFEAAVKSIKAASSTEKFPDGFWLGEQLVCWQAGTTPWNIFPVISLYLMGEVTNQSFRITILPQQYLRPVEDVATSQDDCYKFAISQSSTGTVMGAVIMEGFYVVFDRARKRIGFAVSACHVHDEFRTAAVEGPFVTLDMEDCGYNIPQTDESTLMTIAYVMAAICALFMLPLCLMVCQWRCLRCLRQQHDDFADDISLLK
T2 sequence (P81908 whole entry): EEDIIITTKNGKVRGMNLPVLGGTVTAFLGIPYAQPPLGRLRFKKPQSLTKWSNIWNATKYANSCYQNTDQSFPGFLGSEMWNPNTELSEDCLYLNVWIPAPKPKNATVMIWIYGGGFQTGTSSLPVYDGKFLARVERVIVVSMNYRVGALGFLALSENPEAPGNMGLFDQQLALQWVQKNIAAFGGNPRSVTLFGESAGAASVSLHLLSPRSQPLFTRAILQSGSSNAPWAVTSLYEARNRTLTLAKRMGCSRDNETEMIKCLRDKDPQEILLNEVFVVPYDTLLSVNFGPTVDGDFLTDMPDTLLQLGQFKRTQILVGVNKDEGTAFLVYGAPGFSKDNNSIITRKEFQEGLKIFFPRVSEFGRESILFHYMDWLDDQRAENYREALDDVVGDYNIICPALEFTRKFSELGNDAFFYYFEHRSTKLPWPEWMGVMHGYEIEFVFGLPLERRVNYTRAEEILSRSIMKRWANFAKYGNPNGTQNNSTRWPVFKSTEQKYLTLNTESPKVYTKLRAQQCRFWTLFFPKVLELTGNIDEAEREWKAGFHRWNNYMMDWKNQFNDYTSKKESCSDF
T1 sequence (O42275 24-633): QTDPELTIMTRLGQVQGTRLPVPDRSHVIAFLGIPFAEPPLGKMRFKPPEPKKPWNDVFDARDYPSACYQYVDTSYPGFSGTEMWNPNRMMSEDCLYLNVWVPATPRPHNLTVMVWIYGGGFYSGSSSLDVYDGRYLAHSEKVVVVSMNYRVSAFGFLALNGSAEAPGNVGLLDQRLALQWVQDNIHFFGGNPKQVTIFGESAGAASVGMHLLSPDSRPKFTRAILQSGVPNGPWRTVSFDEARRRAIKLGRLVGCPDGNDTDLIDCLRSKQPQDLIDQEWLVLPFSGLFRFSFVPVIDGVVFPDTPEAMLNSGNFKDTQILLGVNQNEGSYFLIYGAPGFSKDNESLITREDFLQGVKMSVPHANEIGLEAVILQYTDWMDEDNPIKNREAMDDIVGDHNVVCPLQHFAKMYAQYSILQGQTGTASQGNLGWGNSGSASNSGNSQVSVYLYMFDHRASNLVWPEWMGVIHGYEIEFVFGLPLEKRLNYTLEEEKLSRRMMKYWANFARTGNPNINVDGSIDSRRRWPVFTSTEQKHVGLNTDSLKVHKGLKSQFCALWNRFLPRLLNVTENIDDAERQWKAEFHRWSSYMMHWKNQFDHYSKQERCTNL

`COc1ccc2cc3[n+](cc2c1OC)CCc1cc2c(cc1-3)OCO2` [Berberine, berberine, reference compound] gave an IC50 against AChE from electric eel of 0.119 µM.
Consider `O=C(O)/C=C/c1ccc(O[C@@H]2O[C@H](CO)[C@@H](O)[C@H](O)[C@H]2O)cc1` [Compound 1, coumaric acid 4-O-β-D-glucopyranoside], for which the IC50 at AChE from electric eel (setting [2]) was 33.4 ± 0.42 µM; at BChE from equine serum (setting [3]), 53.8 ± 1.15 µM; at BACE1 (setting [4]), above 1000 µM; against MAO-B it was above 1000 µM.
For `O=C(O)/C=C/c1ccc(O[C@@H]2O[C@H](CO)[C@@H](O)[C@H](O)[C@H]2O)c(O)c1` [Compound 2, caffeic acid 4-O-β-D-glucopyranoside], the IC50 on AChE from electric eel (setting [2]) worked out at 14.77 ± 0.07 µM; at BChE from equine serum (setting [3]) it was 488 ± 10.1 µM; on BACE1 (setting [4]) it was 45 ± 0.48 µM; against MAO-B it was 401.3 ± 2.66 µM. Moreover, the “reduction of sAPPβ expression levels” value with sAPPβ (0.5 μM) was 50%. The “reduction of β-secretase expression levels” value in the test on β-secretase (0.5 μM) stood at 40%. For the same compound, the “axonal regrowth effect on Aβ25–35-induced atrophy” value in test [1] (10 μM) was “significant axonal regrowth effects”.
In the case of `COc1cc(/C=C/C(=O)O)ccc1O[C@@H]1O[C@H](CO)[C@@H](O)[C@H](O)[C@H]1O` [Compound 3, lavandoside], at AChE from electric eel (setting [5]), the “IC50 AChE” value was “did not demonstrate cholinesterase-inhibitory activity”. Further, the “IC50 BChE” value against BChE from equine serum (setting [5]) is recorded as “did not demonstrate cholinesterase-inhibitory activity”. The IC50 on BACE1 (setting [4]) was 235 ± 6.86 µM; at MAO-B, 155 ± 7.18 µM.
For the compound `COc1cc(/C=C/C(=O)O)cc(OC)c1O[C@@H]1O[C@H](CO)[C@@H](O)[C@H](O)[C@H]1O` [Compound 4, trans-p-sinapoyl-β-D-glucopyranoside], the IC50 at BChE from equine serum (setting [3]) was determined as 30.6 ± 0.38 µM; on BACE1 (setting [4]) it was 147.4 ± 0.74 µM; against MAO-B it was 600.9 ± 3.72 µM.
On to `C[C@@H]1O[C@@H](O[C@H]2[C@H](Oc3cc(O)c4c(=O)ccoc4c3)O[C@H](CO)[C@@H](O)[C@@H]2O)[C@H](O)[C@H](O)[C@H]1O` [Compound 5, 5,7-dihydroxychromone-7-O-neohesperidoside], for which the IC50 at AChE from electric eel (setting [2]) was above 1000 µM; at BChE from equine serum (setting [3]), 38.8 ± 0.71 µM; at BACE1 (setting [4]) it was above 1000 µM.
As for `C[C@@H]1O[C@@H](O[C@H]2[C@H](Oc3cc(O)c4c(c3)O[C@H](c3ccc(O)c(O)c3)CC4=O)O[C@H](CO)[C@@H](O)[C@@H]2O)[C@H](O)[C@H](O)[C@H]1O` [Compound 8, neoeriocitrin], the IC50 at AChE from electric eel came out at 31.65 ± 0.14 µM; against BChE from equine serum it was 30.04 ± 0.23 µM; against BACE1, 13.7 ± 0.14 µM; on MAO-B it was 2.64 ± 0.016 µM. In test [1] (1 and 10 μM), the “axonal regrowth effect on Aβ25–35-induced atrophy” value is “significant axonal regrowth effects”.
For `C[C@@H]1O[C@@H](O[C@H]2[C@H](Oc3cc(O)c4c(c3)O[C@H](c3ccc(O)cc3)CC4=O)O[C@H](CO)[C@@H](O)[C@@H]2O)[C@H](O)[C@H](O)[C@H]1O` [Compound 9, naringin], the IC50 against AChE from electric eel was 124 ± 35.3 µM; against BChE from equine serum, 252 ± 12.3 µM; at BACE1 (setting [4]), 64.95 ± 0.17 µM; at MAO-B, 51.26 ± 0.14 µM. Further, the “reduction of sAPPβ levels compared to DMSO-treated controls” value in the test on sAPPβ was 30%. For the same compound, the “reduction of β-secretase levels compared to DMSO-treated controls” value with β-secretase is 40% and 30%.
On to `COc1ccc([C@@H]2CC(=O)c3c(O)cc(O[C@@H]4O[C@H](CO[C@@H]5O[C@@H](C)[C@H](O)[C@@H](O)[C@H]5O)[C@@H](O)[C@H](O)[C@H]4O)cc3O2)cc1O` [Compound 10, hesperidin], for which the IC50 on AChE from electric eel is 57.7 ± 5.96 µM; on BChE from equine serum, 331.77 ± 0.14 µM; on BACE1 (setting [4]) it was 55.72 ± 0.17 µM; against MAO-B, 98.77 ± 0.14 µM. Further, in the test on sAPPβ, the “reduction of sAPPβ levels compared to DMSO-treated controls” value came to 30%. In the test on β-secretase, the “reduction of β-secretase levels compared to DMSO-treated controls” value is given as 30%.
